The test system of this test is HMG-CoA reductase. The test can be described thus: in vitro HMG-CoA reductase inhibition, relative potency versus compactin. Type of test: biochemical. The note with it: compactin (mevastatin) assigned a value of 100; IC50 of test compound compared with that of compactin determined simultaneously. As for the experimental part: The intrinsic HMG-CoA reductase inhibition activity of the claimed compounds is measured in the in vitro protocol published in J. Med. Chem., 28, p. 347-358 (1985).
For estimation of relative inhibitory potencies, compactin (i.e., mevastatin) was assigned a value of 100 and the IC50 value of the test compound was compared with that of compactin determined simultaneously in the published in vitro protocol.

With `C[C@H]1C=C2C=C[C@H](C)[C@H](CC[C@@H]3C[C@@H](O)CC(=O)O3)[C@H]2[C@@H](OC(=O)C(C)(C)Sc2ccncc2)C1` [Example 1, 6R-[2-[8(S)[2-methyl-2-(4-pyridinylthio)propionyloxy]-2(S), 6(R)-dimethyl-1,2,6,7,8,8a(R)-hexahydronaphthyl-1(S)]ethyl]-4(R)-hydroxy-3,4,5,6-tetrahydro-2H-pyran-2-one], the “relative potency (intrinsic HMG-CoA reductase inhibitory activity)” value worked out at 112.
Next, `C[C@H]1C=C2C=C[C@H](C)[C@H](CC[C@@H]3C[C@@H](O)CC(=O)O3)[C@H]2[C@@H](OC(=O)C(C)(C)Sc2nc3ccccc3s2)C1` [Example 2]: 100.
